Patent publication US11911393B2, “Non-catalytic substrate-selective p38alpha-specific MAPK inhibitors with endothelial-stabilizing and anti-inflammatory activity, and methods of use thereof” (University of Maryland, Baltimore, priority 2016, dated 2024)

Tested on: TNFα-induced gene expression in HMVECLs
Assay: RNASeq of TNFα-induced gene expression
Format: cell-based, human
Conditions: 100 μM UM101, 10 μM SB203580

## C[S+]([O-])c1ccc(-c2nc(-c3ccncc3)c(-c3ccc(F)cc3)[nH]2)cc1 (centres unmarked) [SB203580, reference compound]
HMVECLs, TNFα
  bin (gene expression response pattern): MAP2K6: 1
  bin (gene expression response pattern): MMP9: 3
  bin (gene expression response pattern): MUC4: 3
  bin (gene expression response pattern): NEURL3: 5
  bin (gene expression response pattern): NIPAL4: 5
  bin (gene expression response pattern): NOG: 5
  bin (gene expression response pattern): NUAK1: 5
  bin (gene expression response pattern): NUAK2: 5
  bin (gene expression response pattern): OR2I1P: 3
  bin (gene expression response pattern): PALMD: 5
  bin (gene expression response pattern): PCDH17: 5
  bin (gene expression response pattern): PCLO: 5
  bin (gene expression response pattern): PDE7B: 5
  bin (gene expression response pattern): PDK4: 5
  bin (gene expression response pattern): PGF: 5
  bin (gene expression response pattern): PLA1A: 3
  bin (gene expression response pattern): PRICKLE1: 5
  bin (gene expression response pattern): PRKCH: 5
  bin (gene expression response pattern): PRRG4: 3
  bin (gene expression response pattern): PTGER4P2: 5
  bin (gene expression response pattern): RASSF9: 5
  bin (gene expression response pattern): RGCC: 5
  bin (gene expression response pattern): RIMS1: 5
  bin (gene expression response pattern): RN7SL471P: 5
  bin (gene expression response pattern): RNF152: 5
  bin (gene expression response pattern): RP11-197M22.2: 5
  bin (gene expression response pattern): RP11-244F12.3: 5
  bin (gene expression response pattern): RP11-284F21.7: 1
  bin (gene expression response pattern): RP11-309L24.2: 5
  bin (gene expression response pattern): RP11-490B18.5: 3
  bin (gene expression response pattern): RP11-758N13.1: 5
  bin (gene expression response pattern): RPA4: 5
  bin (gene expression response pattern): SEMA6D: 1
  bin (gene expression response pattern): SERTAD4: 5
  bin (gene expression response pattern): SGK223: 5
  bin (gene expression response pattern): SH3RF2: 5
  bin (gene expression response pattern): SH3TC2: 5
  bin (gene expression response pattern): SLC15A3: 3
  bin (gene expression response pattern): SLC16A6: 5
  bin (gene expression response pattern): SLC45A3: 5
  bin (gene expression response pattern): SLCO4A1: 5
  bin (gene expression response pattern): SMAD6: 5
  bin (gene expression response pattern): SNORD12B: 3
  bin (gene expression response pattern): SOX18: 5
  bin (gene expression response pattern): SSTR1: 5
  bin (gene expression response pattern): TCHH: 3
  bin (gene expression response pattern): TGFA: 5
  bin (gene expression response pattern): TLR7: 2
  bin (gene expression response pattern): TRIL: 1
  bin (gene expression response pattern): TRPC6: 5
  bin (gene expression response pattern): TSLP: 3
  bin (gene expression response pattern): UNC5B-AS1: 5
  bin (gene expression response pattern): VAV3: 5
  bin (gene expression response pattern): VDR: 3
  bin (gene expression response pattern): Y_RNA: 3
  bin (gene expression response pattern): ZNF365: 5
  bin (gene expression response pattern): ZNF467: 5
  bin (gene expression response pattern): ZNF521: 5
HPCA (ENSG00000121905)
  bin (gene expression response pattern): 8
IFIH1 (ENSG00000115267)
  bin (gene expression response pattern): 7
IL1A (ENSG00000115008)
  bin (gene expression response pattern): 8
IL3RA (ENSG00000185291)
  bin (gene expression response pattern): 7
IL12RB1 (ENSG00000096996)
  bin (gene expression response pattern): 8
IRF8 (ENSG00000140968)
  bin (gene expression response pattern): 7
KYNU (ENSG00000115919)
  bin (gene expression response pattern): 7
LINC00092 (ENSG00000225194)
  bin (gene expression response pattern): 7
LST1 (ENSG00000204482)
  bin (gene expression response pattern): 7
LYPD6 (ENSG00000187123)
  bin (gene expression response pattern): 7
MIR126 (ENSG00000199161)
  bin (gene expression response pattern): 7
MOB3C (ENSG00000142961)
  bin (gene expression response pattern): 7
MRGPRX4 (ENSG00000179817)
  bin (gene expression response pattern): 7
NKD2 (ENSG00000145506)
  bin (gene expression response pattern): 8
NKX3-1 (ENSG00000167034)
  bin (gene expression response pattern): 8
OLR1 (ENSG00000173391)
  bin (gene expression response pattern): 8
P2RX2 (ENSG00000187848)
  bin (gene expression response pattern): 8
PARP14 (ENSG00000173193)
  bin (gene expression response pattern): 7
PEXHG (ENSG00000104883)
  bin (gene expression response pattern): 7
PRRT2 (ENSG00000167371)
  bin (gene expression response pattern): 7
RCAN1 (ENSG00000159200)
  bin (gene expression response pattern): 7
RND1 (ENSG00000172602)
  bin (gene expression response pattern): 8
RP3-416H24.1 (ENSG00000257671)
  bin (gene expression response pattern): 8
RP4-607I7.1 (ENSG00000255521)
  bin (gene expression response pattern): 7
RP4-681N20.5 (ENSG00000275582)
  bin (gene expression response pattern): 8
RP4-734G22.3 (ENSG00000272078)
  bin (gene expression response pattern): 7
RP11-79H23.3 (ENSG00000261618)
  bin (gene expression response pattern): 7
RP11-158I3.3 (ENSG00000269826)
  bin (gene expression response pattern): 8
RP11-283G6.5 (ENSG00000255750)
  bin (gene expression response pattern): 7
RP11-342K2.1 (ENSG00000279133)
  bin (gene expression response pattern): 8
RP11-638I2.9 (ENSG00000258521)
  bin (gene expression response pattern): 8
RP11-875011.2 (ENSG00000246130)
  bin (gene expression response pattern): 7
SCUBE2 (ENSG00000175356)
  bin (gene expression response pattern): 7
SFMBT2 (ENSG00000198879)
  bin (gene expression response pattern): 7
SLC19A3 (ENSG00000135917)
  bin (gene expression response pattern): 7
SLC26A9 (ENSG00000174502)
  bin (gene expression response pattern): 8
SLC52A3 (ENSG00000101276)
  bin (gene expression response pattern): 7
TMEM52B (ENSG00000165685)
  bin (gene expression response pattern): 8
TNF (ENSG00000232810)
  bin (gene expression response pattern): 8
TNIP3 (ENSG00000050730)
  bin (gene expression response pattern): 7
TOX (ENSG00000198846)
  bin (gene expression response pattern): 8
TP63 (ENSG00000073282)
  bin (gene expression response pattern): 8
VCAM1 (ENSG00000162692)
  bin (gene expression response pattern): 7
